Test results reported in patent EP3010915B1 (priority 2013, dated 2014).

System: heme oxygenase 1 (HMOX1)
Assay: Expression array experiments
Assay type: cell-based
Details: multiple cell lines; data not shown
Procedure: As HMOX1 is known to be regulated by H3 methylation in the promoter (Krieg, A. J., et al. Mol Cell Biol 2010, 30 (1), 344-53), the effect of the test compounds on HMOX1 expression in T-47D cells was determined (see Tables 6 and 7).

Compound	transcriptional changes, HMOX1
C/C(=N\NC(=O)c1cccc(S(=O)(=O)N2CCOCC2)c1)c1cc(Cl)ccc1O [Compound 12, (E)-N'-(1-(5-chloro-2-hydroxyphenyl)ethylidene)-3-(morpholinosulfonyl)benzohydrazide]	one of the most consistently up-regulated genes

Target: T1, LSD1 (Homo sapiens, UniProt O60341)
T1 construct: purchased Cayman Chemical Company 700120
Assay: not given
Assay type: biochemical
Details: not given

Compound	IC50
C/C(=N\NC(=O)c1cnc(Cl)c(Br)c1)c1cc(Cl)ccc1O [Compound 19]	> 3000 nM
COc1ccc(Cl)cc1C(=O)NNC(=O)c1cc(S(=O)(=O)N2CCOCC2)ccc1F [Compound 6]	> 3000 nM
CCN(CC)S(=O)(=O)c1ccc(F)c(C(=O)NNC(=O)c2ccc(C)cc2)c1 [Compound 8]	> 3000 nM
C/C(=N\NC(=O)c1cccc(S(=O)(=O)N2CCOCC2)c1)c1ccnc(Cl)c1 [Compound 15]	> 3000 nM
C/C(=N\NC(=O)c1cncc(Cl)c1)c1cc(Cl)ccc1O [Compound 20]	> 3000 nM
C/C(=N\NC(=O)c1ccccc1S(=O)(=O)N1CCOCC1)c1cc(Cl)ccc1O [Compound 28, (E)-N'-(1-(5-chloro-2-hydroxyphenyl)ethylidene)-2-(morpholinosulfonyl)benzohydrazide]	> 3000 nM
C/C(=N\NC(=O)c1cccc(S(=O)(=O)N2CCOCC2)c1)c1cccnc1 [Compound 22]	> 3000 nM
C/C(=N\NC(=O)c1cccc(S(=O)(=O)N2CCOCC2)c1)c1cc(Cl)ccc1O [Compound 12, (E)-N'-(1-(5-chloro-2-hydroxyphenyl)ethylidene)-3-(morpholinosulfonyl)benzohydrazide]	13 nM
C/C(=N\NC(=O)c1cccc(S(=O)(=O)N2CCOCC2)c1)c1cc(Cl)ccc1[N+](=O)[O-] [Compound 32, (E)-N'-(1-(5-chloro-2-nitrophenyl)ethylidene)-3-(morpholinosulfonyl)benzohydrazide]	> 3000 nM
C/C(=N\NC(=O)c1cccc(S(=O)(=O)N2CCOCC2)c1)c1cc(Cl)ccc1F [Compound 27, (E)-N'-(1-(5-chloro-2-fluorophenyl)ethylidene)-3-(morpholinosulfonyl)benzohydrazide]	> 3000 nM
C/C(=N\NC(=O)c1cccc(S(=O)(=O)N2CCOCC2)c1)c1cccc(Cl)c1F [Compound 13]	> 3000 nM
C/C(=N\NC(=O)c1cccc(S(=O)(=O)N2CCOCC2)c1)c1cc(Cl)ccc1Cl [Compound 16]	> 3000 nM
CC/C(=N\NC(=O)c1cccc(S(=O)(=O)N2CCOCC2)c1)c1cc(Cl)ccc1O [Compound 21, (E)-N'-(1-(5-CHLORO-2-HYDROXYPHENYL)PROPYLIDENE)-3-(MORPHOLINOSULFONYL)BENZOHYDRAZIDE]	> 3000 nM
C/C(=N\NC(=O)c1ccccc1)c1c(O)cccc1O [Compound 14]	> 3000 nM
C/C(=N\NC(=O)c1ccc(Cl)c(Br)c1)c1cc(Cl)ccc1O [Compound 17]	> 3000 nM
Cc1cn(C(=O)c2cccc(S(=O)(=O)N3CCOCC3)c2)nc1-c1cc(Cl)ccc1O [Compound 37, (3-(5-chloro-2-hydroxyphenyl)-4-methyl-1H-pyrazol-1-yl)(3-(morpholinosulfonyl)phenyl)methanone]	> 3000 nM
O=C(NNC(=O)c1cc(S(=O)(=O)N2CCOCC2)ccc1F)c1cccc(Cl)c1 [Compound 7]	> 3000 nM
